Patent US8389744B1, “TTPO (5 6,7-trithiapentacene-13-one) and its derivatives: a new class of thermally stable, photooxidatively resistant organic semiconductors” (University of New Hampshire, priority 2011, dated 2013)

Legend:
Thermal stability = format: physicochemical; details: stable up to and including this temperature
[1] = Solubility in organic solvents; format: physicochemical

O=C1c2cc3ccccc3c3c2C2=S(S3)Sc3c2c1cc1ccccc31 [TTPO, 5,6,7-Trithiapentacene-13-one]
thermal stability (Thermal stability): ≤ 450 °C
solubility [1]: soluble in a variety of organic solvents
